Measurements reported in ChEMBL document CHEMBL4725489, “Synthesis, Characterization, and In Silico Studies of Novel Spirooxindole Derivatives as Ecto-5'-Nucleotidase Inhibitors” (ACS Med Chem Lett, 2020).
Calls of active or inactive are those of the source. No cut-off for these calls is given here.

What was measured:
[1] = target: T1, 5'-nucleotidase (Rattus norvegicus) (UniProt P21588); assay: (§1) Inhibition of recombinant rat ecto-5' nucleotidase expressed in COS7 cell membranes assessed as inorganic phosphate release using AMP as substrate at 100 uM preincubated for 10 mins followed by substrate addition and measured after 20 mins by malachite green dye based spectrophotometry relative to control
T1 sequence (whole entry): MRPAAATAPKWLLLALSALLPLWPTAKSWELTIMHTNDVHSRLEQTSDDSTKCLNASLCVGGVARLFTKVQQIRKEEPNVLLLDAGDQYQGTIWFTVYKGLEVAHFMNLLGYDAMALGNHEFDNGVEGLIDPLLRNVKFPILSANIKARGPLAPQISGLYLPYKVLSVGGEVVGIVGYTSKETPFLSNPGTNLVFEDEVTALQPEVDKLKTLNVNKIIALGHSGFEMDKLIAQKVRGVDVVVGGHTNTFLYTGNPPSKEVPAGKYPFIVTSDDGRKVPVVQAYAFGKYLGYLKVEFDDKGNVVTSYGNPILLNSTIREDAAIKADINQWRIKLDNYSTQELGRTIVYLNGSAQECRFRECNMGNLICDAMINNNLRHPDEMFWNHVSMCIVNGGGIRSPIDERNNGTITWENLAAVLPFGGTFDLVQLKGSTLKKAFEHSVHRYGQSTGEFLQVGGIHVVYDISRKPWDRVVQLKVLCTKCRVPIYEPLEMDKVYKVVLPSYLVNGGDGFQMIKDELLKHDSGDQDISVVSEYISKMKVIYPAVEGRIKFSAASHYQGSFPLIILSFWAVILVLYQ

5'-nucleotidase [2] = target: T2, 5'-nucleotidase (Homo sapiens, UniProt P21589); assay: as §1, with “recombinant human” for “recombinant rat”
Target sequence in this assay (P21589 whole entry): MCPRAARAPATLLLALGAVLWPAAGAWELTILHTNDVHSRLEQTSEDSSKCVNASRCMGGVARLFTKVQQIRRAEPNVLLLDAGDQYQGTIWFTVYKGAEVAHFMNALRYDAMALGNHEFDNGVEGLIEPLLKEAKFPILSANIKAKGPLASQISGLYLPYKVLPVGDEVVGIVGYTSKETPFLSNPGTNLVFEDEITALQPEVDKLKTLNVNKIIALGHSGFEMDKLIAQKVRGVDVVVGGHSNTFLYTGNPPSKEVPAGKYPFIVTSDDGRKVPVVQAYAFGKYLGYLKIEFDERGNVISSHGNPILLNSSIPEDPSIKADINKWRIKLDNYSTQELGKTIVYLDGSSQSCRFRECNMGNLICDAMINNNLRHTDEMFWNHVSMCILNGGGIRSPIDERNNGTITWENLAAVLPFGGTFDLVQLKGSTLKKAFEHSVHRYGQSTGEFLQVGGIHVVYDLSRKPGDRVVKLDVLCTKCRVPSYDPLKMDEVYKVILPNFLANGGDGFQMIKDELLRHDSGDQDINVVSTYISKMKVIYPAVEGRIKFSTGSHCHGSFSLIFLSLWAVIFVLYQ

5'-nucleotidase [3] = target: T3, 5'-nucleotidase (Rattus norvegicus, UniProt P21588); assay: Inhibition of recombinant rat ecto-5' nucleotidase expressed in COS7 cell membranes assessed as inorganic phosphate release using AMP as substrate uM preincubated for 10 mins followed by substrate addition and measured after 20 mins by malachite green dye based spectrophotometry
T3 sequence (P21588 whole entry): T1 sequence (whole entry)

5'-nucleotidase [4] = target: T2, 5'-nucleotidase; assay: Inhibition of recombinant human ecto-5' nucleotidase expressed in COS7 cell membranes assessed as inorganic phosphate release using AMP as substrate preincubated for 10 mins followed by substrate addition and measured after 20 mins by malachite green dye based spectrophotometry
Target sequence in this assay (P21589 whole entry): as above

[5] = Selectivity index, ratio of IC50 for recombinant rat ecto-5' nucleotidase expressed in COS7 cell membranes to IC50 for recombinant human ecto-5' nucleotidase expressed in COS7 cell membranes; type: cell-based
5'-nucleotidase [6] = target: T2, 5'-nucleotidase; assay: Potency index, ratio of sulfamic acid IC50 to compound IC50 for human ecto-5' nucleotidase expressed in COS7 cell membranes assessed as inorganic phosphate release using AMP as substrate preincubated for 10 mins followed by substrate addition and measured after 20 mins by malachite green dye based …
Target sequence in this assay (P21589 whole entry, looked up): as the sequence (P21589 whole entry) above

5'-nucleotidase [7] = target: T2, 5'-nucleotidase; assay: Noncompetitive inhibition of human ecto-5' nucleotidase assessed as increase in Km with constant Vmax at 0 to 0.6 uM by Lineweaver-Burk plot analysis; details: dose microM 0-0.6
Target sequence in this assay (P21589 whole entry): as above

5'-nucleotidase [8] = target: T2, 5'-nucleotidase; assay: Inhibition of recombinant human ecto-5' nucleotidase expressed in COS7 cell membranes using AMP as substrate preincubated for 10 mins followed by substrate addition and measured after 20 mins by capillary electrophoresis method
Target sequence in this assay (P21589 whole entry): as above

[9] = target: T1, 5'-nucleotidase (Rattus norvegicus); assay: Uncompetitive inhibition of rat ecto-5' nucleotidase assessed as increase in Km with constant Vmax at 0 to 0.6 uM by Lineweaver-Burk plot analysis; details: dose microM 0-0.6

| inhibition [1] | inhibition (5'-nucleotidase [2]) | IC50 (5'-nucleotidase [3]) | IC50 (5'-nucleotidase [4]) | Compound | other results |
| --- | --- | --- | --- | --- | --- |
| 45.1% | 34.3% | – | – | Cc1[nH]nc2c1C1(C(=O)N(C)c3ccc([N+](=O)[O-])cc31)C(C#N)=C(N)N2 (centres undefined) | – |
| – | – | 5010 nM | 260 nM | Cc1[nH]nc2c1C1(C(=O)N(C)c3ccc(F)cc31)C(C#N)=C(N)N2 (centres undefined) | – |
| – | – | 3560 nM | 180 nM | Cc1[nH]nc2c1C1(C(=O)N(C)c3ccc(OC(F)(F)F)cc31)C(C#N)=C(N)N2 (centres undefined) | – |
| – | – | 7990 nM | 460 nM | CN1C(=O)C2(C(C#N)=C(N)Nc3n[nH]cc32)c2cc(F)ccc21 (centres undefined) | Ratio IC50 [5]: 17.3 |
| – | 39.7% | 680 nM | – | CN1C(=O)C2(C(C#N)=C(N)Nc3n[nH]cc32)c2cc(Cl)ccc21 (centres undefined) | – |
| – | 36.6% | 190 nM | – | Cc1[nH]nc2c1C1(C(=O)N(C)c3ccccc31)C(C#N)=C(N)N2 (centres undefined) | inhibition [9]: Active |
| – | 33% | 1560 nM | – | Cc1[nH]nc2c1C1(C(=O)N(C)c3ccc(Cl)cc31)C(C#N)=C(N)N2 (centres undefined) | – |

The remaining lines, values behind:

| Compound | inhibition [1] | inhibition (5'-nucleotidase [2]) | IC50 (5'-nucleotidase [3]) | IC50 (5'-nucleotidase [4]) | other results |
| --- | --- | --- | --- | --- | --- |
| CN1C(=O)C2(C(C#N)=C(N)Nc3n[nH]cc32)c2cc(OC(F)(F)F)ccc21 (centres undefined) | – | – | 520 nM | 150 nM | Ratio IC50 (5'-nucleotidase [6]): 280; inhibition (5'-nucleotidase [7]): Active |
| CN1C(=O)C2(C(C#N)=C(N)Nc3n[nH]cc32)c2ccccc21 (centres undefined) | 41% | – | – | 690 nM | – |
| N#CC1=C(N)Nc2n[nH]cc2C12C(=O)Nc1ccccc12 (centres undefined) | 41.7% | 27.6% | – | – | – |
| Cc1ccc(-n2nc(C)c3cc(Cl)c(-c4cc(C)ccc4O)nc32)cc1 | – | – | – | – | IC50 (5'-nucleotidase [8]): 320 nM |
| CN1C(=O)C2(C(C#N)=C(N)Nc3n[nH]cc32)c2cc([N+](=O)[O-])ccc21 (centres undefined) | – | 38% | 2120 nM | – | – |
| Cc1[nH]nc2c1C1(C(=O)Nc3ccccc31)C(C#N)=C(N)N2 (centres undefined) | 36.5% | 33% | – | – | – |
